This is an account of results in publication PMC3681751, “Identification of a Novel Antimicrobial Peptide from Human Hepatitis B Virus Core Protein Arginine-Rich Domain (ARD)” (PLoS Pathogens, 2013).

Converted amounts (≈) assume the structure as drawn. Residues, ends and D or L forms follow the SMILES beside them.

One data set deals with S. aureus. Put plainly: Killing kinetics. The data set is classed as cell-based, Staphylococcus aureus. The following applies: 4 µM peptide (1×MBC), 37°C, triplicates. On the procedure:
For measurement of killing kinetics, bacteria and peptides were prepared as described above. Fifty µl of bacteria were mixed with fifty µl of peptides at the concentrations corresponding to MBC and were incubated at 37°C. At the indicated time, bacteria were serially diluted and placed on Mueller-Hinton broth agar plates for the viability measurement.

For the next data set, the system named is P. aeruginosa. Put plainly: SYTOX Green uptake (membrane permeabilization). The following applies: 2 µM peptide; 10^7 CFU, 1 µM SYTOX Green, 37°C, ex 485 nm/em 520 nm. It is filed as cell-based, Pseudomonas aeruginosa. As to the method: (§1) Briefly, bacteria (10^7 CFU) were prepared and mixed with 1 µM SYTOX Green (Invitrogen) for 15 minutes in the dark. […] Melittin (Sigma), the major toxin of bee venom, was used as a positive control to provide maximal permeabilization.

A further data set concerns A. baumannii ATCC17978. It is filed as cell-based, Acinetobacter baumannii. The following applies: text summary over the A. baumannii strains of Table 2. From the text: (§2) Clinical isolates of Pseudomonas aeruginosa (NHRI-01, NHRI-02 and NHRI-04) were obtained through the program of Taiwan Surveillance of Antimicrobial Resistance (TSAR), National Health Research Institutes (NHRI), Taiwan. Acinetobacter baumannii (ATCC 17989, ATCC 17978 CR, ATCC19606, ATCC 19606 CR, TCGH 45530 and TCGH 46709) were obtained from Tzu-Chi Buddhist General Hospital (TCGH) in Taiwan, and clinical isolates (TCGH 45530 and TCGH 46709) were identified using the Vitek system (Biomerieux Vitek, Inc., Hazelwood, MO, USA). A. baumannii is defined as multidrug-resistant, when the organism is resistant to piperacillin, piperacillin-tazobactam, ampicillin/sulbactam, imipenem, ceftazidime, gentamicin, amikacin, tetracycline, chloramphenicol, ciprofloxacin, and cotrimoxazole. Susceptibility to colistin was determined using the broth-dilution method, in accordance with the guidelines of the Clinical and Laboratory Standards Institute (CLSI).
(§3) All peptides were purchased from Yao-Hong Biotechnology Inc. (Taipei, Taiwan). Vendors provided data of peptide characterizations, including HPLC and Mass (data not shown). Antimicrobial activity was determined as described with some modifications as detailed below. Bacteria were grown overnight in Mueller–Hinton broth (Difco) at 37°C, and during the mid-logarithmic phase, bacteria were diluted to 10^6 CFU (colony formation unit)/ml in phosphate buffer (10 mM sodium phosphate and 50 mM sodium chloride, pH 7.2). Peptides were serially diluted in the same buffer. Fifty microliter (µl) of bacteria was mixed with fifty µl of peptides at varying concentrations followed by incubation at 37°C for 3 hours without shaking. At the end of incubation, bacteria were placed on Mueller-Hinton broth agar plates, and allowed growth at 37°C overnight for measurement of minimal bactericidal concentration (MBC). […] All peptides were tested in triplicate.

A further data set has as its system A. baumannii TCGH46709. It is filed as cell-based, Acinetobacter baumannii. The settings on record: TCGH46709, 3 h.
From the text: as §2, §3

Another data set has as its system A. baumannii ATCC19606. The data set is classed as cell-based, Acinetobacter baumannii. The settings on record: ATCC19606, 3 h.
From the text: as §2, §3

Data set [1] has as its system A. baumannii ATCC19606 CR. The data set is classed as cell-based, Acinetobacter baumannii. The settings on record: Induced Colistin resistant strain; colistin susceptibility by broth-dilution (CLSI).
From the text: as §2, §3

Data set [2] relates to A. baumannii ATCC17978 CR. The data set is classed as cell-based, Acinetobacter baumannii. The settings on record: colistin-resistant A. baumannii of Table 2.
From the text: as §2, §3

The subject of a further data set is A. baumannii TCGH45530. The data set is classed as cell-based, Acinetobacter baumannii. The settings on record: TCGH45530, 3 h.
From the text: as §2, §3

The test system of the next data set is ICR mice. Put plainly: Acute in vivo toxicity. Details: species or system mouse. The settings on record: three-week old male ICR mice, 7 days, n = 5. On the procedure: (§4) Three-week old male ICR mice (19 to 21 g) were purchased from BioLASCO (Taiwan). Overnight culture of bacteria in BHI broth (Difco) was subcultured in fresh BHI broth to log phase. Inoculums were diluted in BHI broth to indicated densities. To test the acute toxicity of ARD peptide in vivo, ICR male mice were inoculated intraperitoneally (i.p.) with 10 and 20 mg/kg HBc147-183 in PBS, respectively. Each group contained 5 mice. After peptide injection, the number of dead mice was recorded daily for 7 days post-injection. To test the antimicrobial activity of the ARD peptide in vivo, all mice were inoculated i.p. with Staphylococcus aureus ATCC 19636 (4×10^6 CFU/mouse) in BHI broth. Peptide HBc147-183 (10 mg/kg) was administered i.p. at 1, 1.5 and 2 hours post-inoculation. PBS (10 ml/kg) control was administered at 1 hour post-inoculation. […] Mortality was monitored daily for 7 days post-inoculation. […] The mice were anesthetized first before transferring to the IVIS imaging system (IVIS spectrum), and luminescence was measured with an exposure time of 1 minutes or less. The image system measured the number of photons and translated the data to false color images that depicted the region of strong luminescence with red, moderate luminescence with yellow and green, and mild luminescence with blue. […] Total flux (RLU) of region of interest (ROI) was quantified by the IVIS imaging software.

The test system of data set [3] is Staphylococcus aureus ATCC 19636. Put plainly: Sepsis survival model, i.p. inoculation. It is filed as in vivo. The following applies: 4×10^6 CFU/mouse i.p., n = 10. On the procedure:
as §4

Another data set has as its system E. coli. Briefly: SYTOX Green uptake (membrane permeabilization). The following applies: 4 µM peptide; 10^7 CFU, 1 µM SYTOX Green, 37°C. It is filed as cell-based, Escherichia coli. On the procedure: as §1

As for `CC(C)[C@H](NC(=O)[C@@H](NC(=O)[C@@H](N)[C@@H](C)O)C(C)C)C(=O)N[C@@H](CCCNC(=N)N)C(=O)N[C@@H](CCCNC(=N)N)C(=O)N[C@@H](CCCNC(=N)N)C(=O)NCC(=O)N[C@@H](CCCNC(=N)N)C(=O)N[C@@H](CO)C(=O)N1CCC[C@H]1C(=O)N[C@@H](CCCNC(=N)N)C(=O)N[C@@H](CCCNC(=N)N)C(=O)N[C@@H](CCCNC(=N)N)C(=O)N[C@H](C(=O)N1CCC[C@H]1C(=O)N[C@@H](CO)C(=O)N1CCC[C@H]1C(=O)N[C@@H](CCCNC(=N)N)C(=O)N[C@@H](CCCNC(=N)N)C(=O)N[C@@H](CCCNC(=N)N)C(=O)N[C@@H](CCCNC(=N)N)C(=O)N[C@@H](CO)C(=O)N[C@@H](CCC(N)=O)C(=O)N[C@@H](CO)C(=O)N1CCC[C@H]1C(=O)N[C@@H](CCCNC(=N)N)C(=O)N[C@@H](CCCNC(=N)N)C(=O)N[C@@H](CCCNC(=N)N)C(=O)N[C@@H](CCCNC(=N)N)C(=O)N[C@@H](CO)C(=O)N[C@@H](CCC(N)=O)C(=O)N[C@@H](CO)C(=O)N[C@@H](CCCNC(=N)N)C(=O)N[C@@H](CCC(=O)O)C(=O)N[C@@H](CO)C(=O)N[C@@H](CCC(N)=O)C(=O)N[C@@H](CS)C(=O)O)[C@@H](C)O` [HBc147-183] (H-TVVRRRGRSPRRRTPSPRRRRSQSPRRRRSQSRESQC-OH; N-terminus and C-terminus assumed), in the data set on S. aureus, the “Time to complete killing” value amounted to 120 min. For the same molecule, the “Membrane permeabilization (SYTOX Green uptake)” value in the data set on P. aeruginosa is “significant degree of membrane permeabilization”; in the data set with E. coli, “not able to induce membrane permeabilization”. In addition, the “MBC against colistin-sensitive and colistin-resistant A. baumannii” value against A. baumannii ATCC17978 was 0.5 to 1 µM. Besides, the MBC stood at 4.59 µg/mL (≈ 1 µM) against A. baumannii TCGH46709, 2.30 µg/mL (≈ 0.501 µM) against A. baumannii ATCC19606, 2.30 µg/mL (≈ 0.501 µM) in [1] and 2.30 µg/mL (≈ 0.501 µM) against A. baumannii TCGH45530. Moreover, the “MBC against all tested colistin-resistant A. baumannii” value in data set [2] fell in the range of 0.5 to 1 µM. Also, the “Survival after peptide injection (in vivo toxicity)” value in the data set on ICR mice (10 mg/kg i.p.) and with ICR mice (20 mg/kg i.p.) was “All mice were alive” each time. The figures for the “Survival rate after 7 days” value in data set [3] (10 mg/kg i.p. at 1.5 h post-inoculation) and in [3] (10 mg/kg i.p. at 2 h post-inoculation (peak of bacterial load in blood)) were 70% and 40%, respectively.

What is called MBC is the lowest tested concentration that kills the bacteria rather than only halting them. Higher therefore signals less potent killing.
